Reference: PubChem BioAssay (NCI)
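Results reflect a 48-hour exposure of cells in 96-well plates to compound at five concentrations. Abbreviation: GI50, concentration required for 50% inhibition of growth. TGI is the concentration that stops growth completely.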

Experiments:
Experiment in all cases: NCI anticancer screen, dose series, 48 h
MALME-3M melanoma = system: MALME-3M melanoma
HOP-62 NSCLC = system: HOP-62 NSCLC
SNB-75 CNS = system: SNB-75 CNS
SK-MEL-2 melanoma = system: SK-MEL-2 melanoma
OVCAR-8 ovarian = system: OVCAR-8 ovarian
M14 melanoma = system: M14 melanoma
SF-295 CNS = system: SF-295 CNS
HL-60(TB) leukemia = system: HL-60(TB) leukemia
SN12C renal = system: SN12C renal
A498 renal = system: A498 renal

| SMILES | GI50 (MALME-3M melanoma) [µM] | TGI (MALME-3M melanoma) [µM] | GI50 (HOP-62 NSCLC) [µM] | TGI (HOP-62 NSCLC) [µM] | GI50 (SNB-75 CNS) [µM] | TGI (SNB-75 CNS) [µM] | GI50 (SK-MEL-2 melanoma) [µM] | TGI (SK-MEL-2 melanoma) [µM] | GI50 (OVCAR-8 ovarian) [µM] | TGI (OVCAR-8 ovarian) [µM] | GI50 (M14 melanoma) [µM] | TGI (M14 melanoma) [µM] | GI50 (SF-295 CNS) [µM] | TGI (SF-295 CNS) [µM] | TGI (HL-60(TB) leukemia) [µM] | TGI (SN12C renal) [µM] | TGI (A498 renal) [µM] | GI50 (HL-60(TB) leukemia) [nM] | GI50 (SN12C renal) [µM] | GI50 (A498 renal) [nM] |
| --- | --- | --- | --- | --- | --- | --- | --- | --- | --- | --- | --- | --- | --- | --- | --- | --- | --- | --- | --- | --- |
| CC(C)C[C@H](NC(=O)[C@@H](O)[C@H](N)Cc1ccc([N+](=O)[O-])cc1)C(=O)O | > 25 | > 25 | > 25 | > 25 | > 25 | > 25 | > 25 | > 25 | > 25 | > 25 | > 25 | > 25 | > 25 | > 25 |  |  |  |  |  |  |
| CCCC(Sc1ccccc1)P(=O)(c1ccccc1)c1ccccc1 (centres undefined) |  |  |  | > 100 |  | > 100 |  |  |  | > 100 |  | > 100 |  | > 100 | 52.6 | > 100 | > 100 |  |  |  |
| CCOc1ccccc1/C=N\N=C(\N)N/N=C/c1ccccc1OCC |  |  | 5.73 | > 100 | 1.78 | 8.05 | 1.26 | > 100 | 3.76 | > 100 |  |  | 1.36 | > 100 | 8.92 | > 100 | > 100 | 1330 | 5.89 | 2420 |
| Cc1cn2c(/C=N/Nc3ccccn3)c(-c3ccc(Cl)c([N+](=O)[O-])c3)nc2s1 |  |  | 10.7 | 18.9 |  |  | 21.2 | > 50 | 8.96 | 19.8 | 10.8 | 23 | 23 | > 50 | > 50 | 42.4 |  | > 50000 | 14.3 |  |
| C=CCC(OCCOCC)c1cc(OCCOCC)ccc1OC (centres undefined) |  | > 100 |  | > 100 |  | > 100 |  | > 100 |  | > 100 |  | > 100 |  | > 100 | > 100 | > 100 |  |  |  |  |
| C[C@@H](NC1CCC[C@H]1O)c1ccccc1 (some centres undefined) |  | > 100 |  | > 100 |  | > 100 |  | > 100 |  | > 100 |  | > 100 |  | > 100 | > 100 | > 100 |  |  |  |  |
| CCCCCCCOc1c(OC)cc(C2CC(=O)Nc3c2c(C)nn3-c2nc3ccccc3[nH]2)cc1OC (centres undefined) |  |  | 3.09 | 14.2 |  |  | 3.28 | 12.6 | 4.28 | > 100 | 4.01 | > 100 | 2.33 | 7.74 | 9.03 | > 100 | 3.9 | 2880 | 3.48 | 881 |
| N=C(N)c1ccc(COc2ccccc2OCc2ccc(C(=N)N)cc2)cc1 | 19.2 | 52.2 | 18.9 | 48.9 | 73.8 | > 100 | > 100 | > 100 | 48.2 | > 100 | 51.2 | > 100 | 24.1 | 82.4 |  | 89.3 |  |  | 6.6 |  |
| CSc1ccccc1C#Cc1ccccc1C#CCCCCO | 15.2 | 36.5 | 24.9 | > 100 | 13.8 | 28 | 17.9 | 35.4 | 18.7 | 41.7 |  |  | 1.54 | 6.3 |  | 30.7 | 14.3 |  | 16 | 2240 |
| Nc1n[nH]c2cccc(C#Cc3cccc(C(=O)Nc4cc(CN5CCOCC5)cc(C(F)(F)F)c4)c3)c12 | 1.63 | 9.88 | 4.5 | 18.1 | 5.51 | 19.3 | 2.62 | 10.6 | 4.63 | 20.6 | 2.13 | 8.32 | 3.46 | 14.2 |  | 16.4 | 9.53 |  | 3.71 | 1750 |
| CC12CC(OC(=O)[C@]1(C)O)[C@@H]([C@]1(O)CC[C@H]3[C@@H]4C[C@H]5O[C@]56[C@@H](O)C=CC(=O)[C@]6(C)[C@H]4CC[C@@]31C)C2 (some centres undefined) |  |  |  | > 100 |  |  |  | 21 |  | 13.3 |  | 24.9 |  | > 100 |  | 20.5 | 33.2 |  |  |  |
| CCOC(=O)c1nc(Nc2ccc(Cl)cc2)c2ccccc2n1 |  |  | 16.4 | > 50 | 11.9 | 29.5 | 13.2 | 30.4 | 12.3 | 28.5 | 12.4 | 30.6 | 8.09 | 15.6 | > 50 | 27.4 |  | > 50000 | 11.5 |  |
| CCC(/C=C/c1ccccc1)=N\Nc1ccc(Cl)c(Cl)c1 |  | 78.9 |  | > 100 |  | > 100 |  | 40.9 |  | 39.6 |  | > 100 |  | > 100 | 72.5 | 74.8 |  |  |  |  |
| CCOC(=O)c1nc(-c2ccccc2)oc1OCC |  |  |  | > 100 |  | > 100 |  |  |  | > 100 |  | > 100 |  | > 100 | > 100 | > 100 |  |  |  |  |
| O=C(CN(/C=C/C(=O)C(F)(F)F)c1ccccc1)c1ccc(Cl)c(Cl)c1 | 12.8 | 32.1 | 28.3 | > 100 |  |  | 12.4 | 26.6 | 16.6 | 33 |  |  | 12.4 | 27.5 |  | 28.3 | 27.4 |  | 15.1 | 14200 |
| C/C=C/C=C/CCCCCCCCCCCCCC1(OC)C=CC(CC(=O)OC)OO1 (centres undefined) |  | 50.8 | 20 | 41.6 |  | 22.4 |  | 39 | 3.99 | 14.5 |  | 28.6 | 2.58 | 6.34 | 18.4 | 26.3 |  |  |  |  |
| Cc1c(Cl)cccc1NC1=C(Cl)C(=O)N(Cc2ccccc2)C1=O |  |  | 7.65 | 20.4 |  |  | 27.5 | 89.9 | 9.23 | 23.8 | 10.2 | 22 | 3.01 | 14.4 |  | 24.1 | 24.8 |  | 11.4 | 11700 |
| Nc1c(C(=O)Nc2ccccc2)sc2nc3c(cc12)CN(Cc1ccccc1)CC3 | 3.8 | > 100 | 4.11 | 33.3 |  |  | 20.3 | > 100 | 16.8 | > 100 | 30.8 | > 100 | 5.45 | > 100 |  | > 100 |  |  | 65.7 |  |
| CCC1CCc2c(OC)ccc(OCC(=O)O)c2C1=O (centres undefined) |  | > 100 |  | > 100 |  | > 100 |  | > 100 |  | > 100 |  | > 100 |  | > 100 | > 100 | > 100 |  |  |  |  |
| COc1cc(C)c(O)c(C(=O)O)c1 |  | > 100 |  | > 100 |  | > 100 |  | > 100 |  | > 100 |  | > 100 |  | > 100 |  | > 100 | > 100 |  |  |  |
| Cc1[nH]c2ccccc2c1CCNCc1ccc(/C=C/C(=O)NO)cc1 |  |  | < 0.0122 | 0.0697 | < 0.0147 | 2.8 | < 0.012 | 0.0532 | < 0.01 | 0.178 | < 0.0116 | 0.111 | 0.0146 | 0.0563 | 3.16 | 0.317 | 0.022 | < 10 | 0.0272 | < 10 |
| CC(=O)Nc1ccc(/C=C/C(=O)c2sc(-c3nc(C)c(C(=O)/C=C/c4ccc(NC(C)=O)cc4)s3)nc2C)cc1 |  | > 100 |  | > 100 |  |  |  | > 100 |  | > 100 |  | > 100 |  | > 100 | > 100 | > 100 |  |  |  |  |
| Nc1cc(N)c2nc(-c3ccccc3)c(NCc3ccc(F)cc3)nc2c1 |  |  | 39.1 | > 100 | 2.16 | 5.06 | 5.21 | > 100 | 2.66 | 6.07 | 23.7 | 55.9 | 3.5 | 13.6 | > 100 | 23.7 | 31 | 3850 | 7.5 | 16800 |
| COC(=O)C1=C(OC(=O)c2ccc(Cl)cc2)C(C(=O)OC)[C@@]2(O)[C@@H](C(=O)OC)C(c3ccccc3Cl)C[C@@H]1[C@@H]2C(=O)OC (some centres undefined) | 4.85 | 31.7 | 15.9 | > 100 | 5.05 | 30.3 | 2.51 | 5.94 | 2.61 | 12.8 | 4.07 | 90.1 |  |  |  | 31 | 13.2 |  | 4.22 | 2810 |
| CC(=O)NC1CC2Oc3ccc(C)cc3C(C)(O2)C1O (centres undefined) |  | > 100 |  | > 100 |  | > 100 |  | > 100 |  | > 100 |  | > 100 |  | > 100 | > 100 | > 100 |  |  |  |  |
| COC(=O)c1cc(-c2cccn2C)c2c(c1C(=O)OC)c1ccccc1n2C |  | > 100 |  |  |  | > 100 |  | > 100 |  | > 100 |  | > 100 |  | > 100 | > 100 | > 100 |  |  |  |  |
